Drawing on patent US12458640B2, “Pyrazolo[3,4-b]pyrazine SHP2 phosphatase inhibitors” (OTSUKA PHARMACEUTICAL CO., LTD., priority 2019, dated 2025), this text covers IC50 and inhibition for 20 compounds.

Structures are written as SMILES. Counter-ions that a name gives are not always drawn.

In one assay the target is SHP2 (Homo sapiens (Human), UniProt Q06124). The assay is described as follows: Shp2 Biochemical Assay (DiFMUP conversion). As to conditions: for IC50: 10 pM SHP2, activating peptide pIRS1, DiFMUP substrate, average where more than one data point. The protocol: SHP2 activity was monitored by measuring the conversion of the surrogate substrate 6,8-difluoromethylumbelliferyl phosphate (DiFMUP) to the fluorescent product, 6,8-difluoromethylumbelliferone (DiFMU).
SHP2 was pre-incubated with test compounds and the activating peptide pIRS1 (H2N-LN(pY)IDLDLV-(PEG)8-LST(pY)ASINFQK-amide) for 30 min, prior to addition of the 6,8-difluoromethylumbelliferyl phosphate (DiFMUP), (Thermo Fisher D6567). Final assay concentrations were 10 pM SHP2, 0.25 μM pIRS1 peptide, 50 μM DiFMUP, 25 mM Bis-Tris propane, pH 7.0, 150 mM NaCl, 0.05% (v/v) Tween-20, 0.5 mM TCEP and 5% (v/v) DMSO. Rates of reaction were then measured over 30 min by monitoring fluorescence on a BMG Pherastar reader at excitation 360 nm/emission 450 nm. IC50 values were calculated from the normalized dose-response plots using four parameter logistic curve fit.

For a further assay, the system named is pERK. Kind of assay: Cellular pERK Inhibition Assay (phospho-p44/42 MAPK sandwich ELISA). In kind it is cell-based. As to conditions: Homo sapiens; HCC827 cells, 0.5 hours compound treatment; average where more than one data point. The protocol: Cellular pERK Inhibition Assay
HCC827 cells (ATCC, Manassas, USA) were seeded into 96-well plates at a density of 1×10^5 cells/well in RPMI medium supplemented with 10% FBS and incubated 24 h. Compounds were diluted first in DMSO and then into serum-free medium, before being added to cells in triplicate to give a final concentration of 0.1% DMSO. Plates were incubated at 37° C. for 0.5 hours in a humidified atmosphere of 5% CO2 in air.
Following compound treatment, medium was removed and cells were lysed by adding 50 μL of lysis buffer (Cell Signalling Technology, Beverly, USA) to each well. Plates were then incubated at room temperature for 25 minutes with shaking. pERK levels were measured in lysates using the PathScan® phospho-p44/42 MAPK (Thr202/Tyr204) sandwich ELISA (Cell Signalling Technology, Beverly, USA) as per kit instructions. Briefly, 50 μL of cell lysate was added to 50 μL of ELISA sample diluent in a 96-well ELISA plate and incubated overnight at 4° C. Following washing, 100 μL of detection antibody was added per well and the plates incubated for 1 hour at 37° C. Plates were washed again and incubated at 37° C. for 30 minutes with 100 μl of HRP-linked secondary antibody per well. After final washing, 100 μL per well of TMB substrate was added and plates incubated at 37° C. to develop colour. Colour development was stopped by the addition of 100 μL per well of stop solution. Plates were read at 450 nm on a SpectraMax Gemini reader (Molecular Devices, Uckfield, UK).
The average signal from blank wells (no cells added) was subtracted from the signals from each sample well. Levels of pERK were then expressed as “percent of control”, using DMSO treated samples as control. Dose response curves were generated using GraphPad Prism Version 6 (GraphPad Software, La Jolla, USA) and fitted using the four parameter logistic curve fit.
(In general: ELISA stands for enzyme-linked immunosorbent assay.)

SHP2, sequence (Q06124 whole entry): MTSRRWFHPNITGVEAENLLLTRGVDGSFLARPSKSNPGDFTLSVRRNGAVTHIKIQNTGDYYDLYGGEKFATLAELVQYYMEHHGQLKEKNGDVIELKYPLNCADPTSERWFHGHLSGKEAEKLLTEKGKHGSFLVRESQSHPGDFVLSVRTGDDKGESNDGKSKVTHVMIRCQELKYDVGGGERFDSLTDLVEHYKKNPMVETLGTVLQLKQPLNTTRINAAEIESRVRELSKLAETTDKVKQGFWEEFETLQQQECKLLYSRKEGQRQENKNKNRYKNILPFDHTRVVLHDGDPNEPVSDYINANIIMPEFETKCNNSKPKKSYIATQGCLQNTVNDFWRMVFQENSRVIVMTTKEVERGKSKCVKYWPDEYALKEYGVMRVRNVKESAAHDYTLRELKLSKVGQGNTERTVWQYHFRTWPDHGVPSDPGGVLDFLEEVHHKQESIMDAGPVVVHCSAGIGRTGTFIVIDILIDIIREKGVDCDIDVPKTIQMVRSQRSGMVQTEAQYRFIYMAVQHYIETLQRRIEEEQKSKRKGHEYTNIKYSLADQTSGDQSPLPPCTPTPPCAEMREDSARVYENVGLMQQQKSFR

A word on the IC50: it is the point on the concentration scale where inhibition reaches its midpoint. A high value points to lower potency. As for `Cc1nc2c(-c3ccc4ncc(N5CCC5)nc4c3Cl)n[nH]c2nc1N1CCC2(CC1)CO[C@@H](C)[C@H]2N` [Example 25, (3S,4S)-8-{3-[3-(azetidin-1-yl)-5-chloroquinoxalin-6-yl]-5-methyl-1H-pyrazolo[3,4-b]pyrazin-6-yl}-3-methyl-2-oxa-8-azaspiro[4.5]decan-4-amine], the values for the IC50 against SHP2 and with pERK were 0.024 µM and 0.028 µM, respectively. The like results for `COc1cnc2ccc(-c3n[nH]c4nc(N5CCC6(CC5)CO[C@@H](C)[C@H]6N)c(C)nc34)c(Cl)c2n1` [Example 9, (3S,4S)-8-[3-(5-chloro-3-methoxyquinoxalin-6-yl)-5-methyl-1H-pyrazolo[3,4-b]pyrazin-6-yl]-3-methyl-2-oxa-8-azaspiro[4.5]decan-4-amine hydrochloride] were, in that order, 0.018 µM and 0.045 µM. At SHP2, `Cc1nc2c(-c3ccc4nn(C)c(Cl)c4c3Cl)n[nH]c2nc1N1CCC2(CC1)COC[C@H]2N` [Example 4, (4S)-8-[3-(3,4-dichloro-2-methyl-2H-indazol-5-yl)-5-methyl-1H-pyrazolo[3,4-b]pyrazin-6-yl]-2-oxa-8-azaspiro[4.5]decan-4-amine] yielded an IC50 of 0.0053 µM. On to `Cc1nc2c(-c3ccc4nn(C)c(Cl)c4c3Cl)n[nH]c2nc1N1CCC2(CCC[C@H]2N)CC1` [Example 15, (1R)-8-[3-(3,4-dichloro-2-methyl-2H-indazol-5-yl)-5-methyl-1H-pyrazolo[3,4-b]pyrazin-6-yl]-8-azaspiro[4.5]decan-1-amine], for which the IC50 at SHP2 worked out at 0.0076 µM; with pERK, 0.059 µM. `C[C@@H]1OCC2(CCN(c3nc4[nH]nc(-c5ccc6ncc(N(C)C)nc6c5Cl)c4nc3CO)CC2)[C@@H]1N` [Example 17, {6-[(3S,4S)-4-amino-3-methyl-2-oxa-8-azaspiro[4.5]decan-8-yl]-3-[5-chloro-3-(dimethylamino)quinoxalin-6-yl]-1H-pyrazolo[3,4-b]pyrazin-5-yl}methanol]: the IC50 at SHP2 worked out at 0.014 µM; in the assay with pERK, 0.0053 µM.

On to `COc1cnc2ccc(-c3n[nH]c4nc(N5CCC6(CC5)COC[C@H]6N)c(C)nc34)c(Cl)c2n1` [Example 13, (4S)-8-[3-(5-chloro-3-methoxyquinoxalin-6-yl)-5-methyl-1H-pyrazolo[3,4-b]pyrazin-6-yl]-2-oxa-8-azaspiro[4.5]decan-4-amine], for which the inhibition at 0.01 µM on SHP2 (at 0.010 μM, read-out: SHP2 % inhibition at given concentration) turned out to be 35%. This compound yielded an IC50 with pERK of 0.095 µM. Take `Cc1nc2c(-c3ccc4nn(C)cc4c3Cl)n[nH]c2nc1N1CCC2(CC1)COC[C@H]2N` [Example 3, (4S)-8-[3-(4-chloro-2-methyl-2H-indazol-5-yl)-5-methyl-1H-pyrazolo[3,4-b]pyrazin-6-yl]-2-oxa-8-azaspiro[4.5]decan-4-amine]: the IC50 was determined as 0.0056 µM at SHP2 and 0.04 µM in the assay with pERK. The matching figures for `Cc1c2c(Cl)c(-c3n[nH]c4nc(N5CCC6(CC5)CO[C@@H](C)[C@H]6N)c(CO)nc34)ccc2nn1C` [Example 21, {6-[(3S,4S)-4-amino-3-methyl-2-oxa-8-azaspiro[4.5]decan-8-yl]-3-(4-chloro-2,3-dimethyl-2H-indazol-5-yl)-1H-pyrazolo[3,4-b]pyrazin-5-yl}methanol]: 0.015 µM and 0.0057 µM. The matching figures for `C[C@@H]1OCC2(CCN(c3nc4[nH]nc(-c5ccc6nn(C)c(Cl)c6c5Cl)c4nc3CO)CC2)[C@@H]1N` [Example 8, {6-[(3S,4S)-4-amino-3-methyl-2-oxa-8-azaspiro[4.5]decan-8-yl]-3-(3,4-dichloro-2-methyl-2H-indazol-5-yl)-1H-pyrazolo[3,4-b]pyrazin-5-yl}methanol]: 0.0071 µM and 0.0036 µM. In the case of `COc1cnc2ccc(-c3n[nH]c4nc(N5CCC6(CCC[C@H]6N)CC5)c(C)nc34)c(Cl)c2n1` [Example 14, (1R)-8-[3-(5-chloro-3-methoxyquinoxalin-6-yl)-5-methyl-1H-pyrazolo[3,4-b]pyrazin-6-yl]-8-azaspiro[4.5]decan-1-amine], the IC50 against SHP2 came to 0.013 µM; with pERK it was 0.15 µM. Take `C[C@@H]1OCC2(CCN(c3nc4[nH]nc(-c5ccccc5Cl)c4nc3CO)CC2)[C@@H]1N` [Example 24, {6-[(3S,4S)-4-amino-3-methyl-2-oxa-8-azaspiro[4.5]decan-8-yl]-3-(2-chlorophenyl)-1H-pyrazolo[3,4-b]pyrazin-5-yl}methanol]: the IC50 at SHP2 was determined as 0.011 µM; with pERK, 0.0064 µM. Take `Cc1nc2c(-c3ccc4nn(C)cc4c3Cl)n[nH]c2nc1N1CCC2(CC1)CO[C@@H](C)[C@H]2N` [Example 6, (3S,4S)-8-[3-(4-Chloro-2-methyl-2H-indazol-5-yl)-5-methyl-1H-pyrazolo[3,4-b]pyrazin-6-yl]-3-methyl-2-oxa-8-azaspiro[4.5]decan-4-amine]: the 50% inhibitory concentration (IC50) at SHP2 turned out to be 0.018 µM; in the assay with pERK, 0.012 µM. The matching figures for `Cn1nc2ccc(-c3n[nH]c4nc(N5CCC6(CC5)C[C@H](F)C[C@H]6N)c(CO)nc34)c(Cl)c2c1Cl` [Example 20, {6-[(1R,3S)-1-amino-3-fluoro-8-azaspiro[4.5]decan-8-yl]-3-(3,4-dichloro-2-methyl-2H-indazol-5-yl)-1H-pyrazolo[3,4-b]pyrazin-5-yl}methanol]: 0.0071 µM and 0.0041 µM. The like results for `COc1cnc2ccc(-c3n[nH]c4nc(N5CCC6(CC5)CO[C@@H](C)[C@H]6N)c(CO)nc34)c(Cl)c2n1` [Example 22, {6-[(3S,4S)-4-amino-3-methyl-2-oxa-8-azaspiro[4.5]decan-8-yl]-3-(5-chloro-3-methoxyquinoxalin-6-yl)-1H-pyrazolo[3,4-b]pyrazin-5-yl}methanol] were, in that order, 0.011 µM and 0.0084 µM. As for `Cc1nc2c(-c3ccc4ncc(N(C)C)nc4c3Cl)n[nH]c2nc1N1CCC2(CC1)COC[C@H]2N` [Example 11, (4S)-8-{3-[5-chloro-3-(dimethylamino)quinoxalin-6-yl]-5-methyl-1H-pyrazolo[3,4-b]pyrazin-6-yl}-2-oxa-8-azaspiro[4.5]decan-4-amine], the inhibition at 0.03 µM on SHP2 (at 0.030 μM, read-out: SHP2 % inhibition at given concentration) turned out to be 66%. In the assay with pERK, this compound showed an IC50 of 0.032 µM.

`C[C@@H]1OCC2(CCN(c3nc4[nH]nc(-c5cccc(Cl)c5F)c4nc3CO)CC2)[C@@H]1N` [Example 23, {6-[(3S,4S)-4-amino-3-methyl-2-oxa-8-azaspiro[4.5]decan-8-yl]-3-(3-chloro-2-fluorophenyl)-1H-pyrazolo[3,4-b]pyrazin-5-yl}methanol]: the IC50 was found to be 0.0054 µM on SHP2 and 0.0058 µM in the assay with pERK. The like results for `Cn1cc2c(Cl)c(-c3n[nH]c4nc(N5CCC6(CC5)CC(F)(F)C[C@H]6N)c(CO)nc34)ccc2n1` [Example 7, {6-[(1R)-1-amino-3,3-difluoro-8-azaspiro[4.5]decan-8-yl]-3-(4-chloro-2-methyl-2H-indazol-5-yl)-1H-pyrazolo[3,4-b]pyrazin-5-yl}methanol] were, in that order, 0.011 µM and 0.0063 µM. As to `Cc1nc2c(-c3cccc(Cl)c3F)n[nH]c2nc1N1CCC2(CC1)CO[C@@H](C)[C@H]2N` [Example 19, (3S,4S)-8-[3-(3-chloro-2-fluorophenyl)-5-methyl-1H-pyrazolo[3,4-b]pyrazin-6-yl]-3-methyl-2-oxa-8-azaspiro[4.5]decan-4-amine], the IC50 against SHP2 worked out at 0.0098 µM; with pERK, 0.1 µM.

As to `CCn1cc2c(Cl)c(-c3n[nH]c4nc(N5CCC6(CC5)COC[C@H]6N)c(C)nc34)ccc2n1` [Example 5, (4S)-8-[3-(4-chloro-2-ethyl-2H-indazol-5-yl)-5-methyl-1H-pyrazolo[3,4-b]pyrazin-6-yl]-2-oxa-8-azaspiro[4.5]decan-4-amine], the IC50 against SHP2 was determined as 0.0076 µM; with pERK, 0.046 µM. As for `Cc1nc2c(-c3ccc4ncc(N(C)C)nc4c3Cl)n[nH]c2nc1N1CCC2(CCC[C@H]2N)CC1` [Example 12, 7-(6-[(1R)-1-amino-8-azaspiro[4.5]decan-8-yl]-5-methyl-1H-pyrazolo[3,4-b]pyrazin-3-yl}-8-chloro-N,N-dimethyl-quinoxalin-2-amine], the IC50 was 0.015 µM against SHP2 and 0.033 µM in the assay with pERK.
